Test results reported in patent publication US10766884B2 (Pfizer Inc., priority 2018, dated 2020).

Assays:
CDK4/Cyclin D1 = CDK4/Cyclin D1 (Homo sapiens (Human), UniProt P11802); assay: CDK4/Cyclin D1 mobility shift assay; assay type: biochemical; conditions: activated CDK4/Cyclin D1, 3.5 mM ATP, Morrison fit; read-out: CDK4D1 Ki
Protocol: (§1) The purpose CDK4/Cyclin D1 assay is to evaluate the inhibition (% inhibition, Kiapp and Ki values) in the presence of small molecule inhibitors by using a fluorescence based microfluidic mobility shift assay. […] The mobility shift assay electrophoretically separates the fluorescently labeled peptides (substrate and phosphorylated product) following the kinase reaction. Both substrate and product are measured and the ratio of these values is used to generate % Conversion of substrate to product by the LabChip EZ Reader.
The reaction was stopped after 195 minutes by the addition of 50 μL of 30 mM EDTA. Ki determinations were made from a plot of the fractional velocity as a function of inhibitor concentration fit to the Morrison equation with the enzyme concentration as a variable.
(§2) For CDK4 and CDK6 mobility shift assays, see also Morrison, J. F. (1969) Kinetics of the reversible inhibition of enzyme-catalysed reactions by tight-binding inhibitors, Biochimica et biophysica acta 185, 269-286; and Murphy, D. J. (2004) Determination of accurate KI values for tight-binding enzyme inhibitors: an in silico study of experimental error and assay design, Analytical biochemistry 327, 61-67.

CDK6/Cyclin D3 = CDK6/Cyclin D3 (Homo sapiens (Human), UniProt Q00534); assay: CDK6/Cyclin D3 mobility shift assay; assay type: biochemical; conditions: activated CDK6/Cyclin D3, 3.5 mM ATP, Morrison fit; read-out: CDK6_D3 Ki
Protocol: as §1, with “of the CDK6/Cyclin D3” for “CDK4/Cyclin D1”, “conversion” for “Conversion”
The reaction was stopped after 95 minutes by the addition of 50 μL of 30 mM EDTA. Ki determinations were made from a plot of the fractional velocity as a function of inhibitor concentration fit to the Morrison equation with the enzyme concentration as a variable.
as §2

Chain of CDK4/Cyclin D1 (P11802 whole entry): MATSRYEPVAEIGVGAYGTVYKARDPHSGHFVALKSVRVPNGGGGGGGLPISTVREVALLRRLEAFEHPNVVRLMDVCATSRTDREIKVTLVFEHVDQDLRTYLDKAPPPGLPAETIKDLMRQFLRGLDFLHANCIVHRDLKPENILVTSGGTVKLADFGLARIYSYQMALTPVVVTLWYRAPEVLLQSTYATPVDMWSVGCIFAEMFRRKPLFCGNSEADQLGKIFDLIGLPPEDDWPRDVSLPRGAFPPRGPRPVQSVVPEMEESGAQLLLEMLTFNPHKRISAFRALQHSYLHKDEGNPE
Chain of CDK4/Cyclin D1 (P24385 whole entry partner): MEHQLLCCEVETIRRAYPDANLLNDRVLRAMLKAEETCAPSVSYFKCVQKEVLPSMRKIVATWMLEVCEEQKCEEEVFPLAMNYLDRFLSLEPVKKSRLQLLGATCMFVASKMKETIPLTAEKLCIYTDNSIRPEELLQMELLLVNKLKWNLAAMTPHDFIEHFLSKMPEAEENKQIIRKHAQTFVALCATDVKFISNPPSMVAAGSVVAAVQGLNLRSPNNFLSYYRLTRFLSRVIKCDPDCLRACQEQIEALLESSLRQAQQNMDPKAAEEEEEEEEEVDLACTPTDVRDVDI
Chain of CDK6/Cyclin D3 (Q00534 whole entry): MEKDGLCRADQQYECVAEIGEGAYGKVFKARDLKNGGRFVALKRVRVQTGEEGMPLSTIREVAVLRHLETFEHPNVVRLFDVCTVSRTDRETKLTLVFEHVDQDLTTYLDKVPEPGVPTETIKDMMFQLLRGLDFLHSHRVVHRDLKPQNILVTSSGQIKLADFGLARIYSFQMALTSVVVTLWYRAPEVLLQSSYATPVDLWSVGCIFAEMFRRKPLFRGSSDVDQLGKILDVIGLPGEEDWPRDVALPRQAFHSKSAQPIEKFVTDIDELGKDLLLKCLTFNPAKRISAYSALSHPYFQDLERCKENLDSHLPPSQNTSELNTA
Chain of CDK6/Cyclin D3 (P30281 whole entry partner): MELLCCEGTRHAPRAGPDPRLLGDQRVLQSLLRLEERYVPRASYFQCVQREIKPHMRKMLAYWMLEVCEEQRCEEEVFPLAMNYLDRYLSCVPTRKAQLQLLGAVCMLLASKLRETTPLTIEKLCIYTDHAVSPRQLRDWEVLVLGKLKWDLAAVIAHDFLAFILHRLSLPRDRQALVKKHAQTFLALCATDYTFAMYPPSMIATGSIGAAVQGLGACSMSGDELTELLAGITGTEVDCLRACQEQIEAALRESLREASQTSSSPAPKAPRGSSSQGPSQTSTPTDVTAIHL

SMILES	Ki (CDK4/Cyclin D1) [nM]	Ki (CDK6/Cyclin D3) [nM]
CC(C)n1nnc2ccc(-c3nc(N[C@@H]4CCN(S(C)(=O)=O)C[C@H]4O)ncc3Cl)cc21 [Example A84, (3R,4R)-4-({5-chloro-4-[1-(propan-2-yl)-1H-benzotriazol-6-yl]pyrimidin-2-yl}amino)-1-(methanesulfonyl)piperidin-3-ol]	6	30.3
Cc1nc2ncc(-c3nc(N[C@@H]4CCN(S(C)(=O)=O)C[C@H]4O)ncc3Cl)cc2n1C(C)C [Example A85, (3R,4R)-4-({5-chloro-4-[2-methyl-1-(propan-2-yl)-1H-imidazo[4,5-b]pyridin-6-yl]pyrimidin-2-yl}amino)-1-(methanesulfonyl)piperidin-3-ol]	9.9	62.8
Cc1nc2ccc(-c3nc(N[C@@H]4CCN(S(C)(=O)=O)C[C@H]4O)ncc3Cl)nc2n1C(C)C [Example A86, (3R,4R)-4-({5-chloro-4-[2-methyl-3-(propan-2-yl)-3H-imidazo[4,5-b]pyridin-5-yl]pyrimidin-2-yl}amino)-1-(methanesulfonyl)piperidin-3-ol]	4.7	23.5
CS(=O)(=O)N1CC[C@@H](Nc2ncc(Cl)c(-c3cc(F)c4nc(CO)n(CC(F)(F)F)c4c3)n2)[C@H](O)C1 [Example A90, (3R,4R)-4-({5-chloro-4-[4-fluoro-2-(hydroxymethyl)-1-(2,2,2-trifluoroethyl)-1H-benzimidazol-6-yl]pyrimidin-2-yl}amino)-1-(methanesulfonyl)piperidin-3-ol]	0.2	1.1
CC(C)n1cnc2c(F)cc(-c3nc(N[C@@H]4CCN(S(C)(=O)=O)C[C@H]4O)ncc3C(F)(F)F)cc21 [Example B02, (3R,4R)-4-({4-[4-fluoro-1-(propan-2-yl)-1H-benzimidazol-6-yl]-5-(trifluoromethyl)pyrimidin-2-yl}amino)-1-(methanesulfonyl)piperidin-3-ol]	7.3	27.1
CC(C)n1c([C@H](C)O)nc2c(F)cc(-c3cc(N[C@@H]4CCN(S(C)(=O)=O)C[C@H]4O)ncc3Cl)cc21 [Example D01, (3R,4R)-4-[(5-chloro-4-{4-fluoro-2-[(1S)-1-hydroxyethyl]-1-(propan-2-yl)-1H-benzimidazol-6-yl}pyridin-2-yl)amino]-1-(methanesulfonyl)piperidin-3-ol]	0.4	1.7
CC(C)n1c([C@H](C)O)nc2c(F)cc(-c3cc(N[C@@H]4CCOC[C@H]4O)ncc3Cl)cc21 [Example D02, 1,5-anhydro-3-[(5-chloro-4-{4-fluoro-2-[(1S)-1-hydroxyethyl]-1-(propan-2-yl)-1H-benzimidazol-6-yl}pyridin-2-yl)amino]-2,3-dideoxy-D-threo-pentitol]	1	9.3
CC(C)n1c([C@@H](C)O)nc2c(F)cc(-c3cc(N[C@@H]4CCN(S(C)(=O)=O)C[C@H]4O)ncc3Cl)cc21 [Example D03, (3R,4R)-4-[(5-chloro-4-{4-fluoro-2-[(1R)-1-hydroxyethyl]-1-(propan-2-yl)-1H-benzimidazol-6-yl}pyridin-2-yl)amino]-1-(methanesulfonyl)piperidin-3-ol]	0.6	4.7
Cc1nc2c(F)cc(-c3nc(N[C@H]4CCN(S(C)(=O)=O)C[C@@H]4O)ncc3F)cc2n1C(C)C [Example F14, (3S,4S)-4-({5-fluoro-4-[4-fluoro-2-methyl-1-(propan-2-yl)-1H-benzimidazol-6-yl]pyrimidin-2-yl}amino)-1-(methanesulfonyl)piperidin-3-ol]	3.6	30.8
CC(C)n1cnc2c(F)cc(-c3nc(N[C@@H]4CCN(C(=O)C5(C)COC5)C[C@H]4O)ncc3Cl)cc21 [Example F19, [(3R,4R)-4-({5-chloro-4-[4-fluoro-1-(propan-2-yl)-1H-benzimidazol-6-yl]pyrimidin-2-yl}amino)-3-hydroxypiperidin-1-yl](3-methyloxetan-3-yl)methanone]	1.5	11.8
